Source: patent publication US20220047569A1, “METHOD AND COMPOUND FOR USE, IN TREATING AND/OR PREVENTING NETOSIS” (Jubilant EpiPad LLC, priority 2020, published 2022)

What was measured:
[1] = system: Bleomycin (BLM)-induced mice fibrosis; test: Bleomycin induced lung fibrosis model; assay type: in vivo, C57BL/6 male mice; conditions: 50 mg/kg, PO, BID
From the text: Bleomycin (BLM)-induced mice fibrosis is a well-established animal model used to study pathogenesis of lung fibrosis and to estimate the potential anti-fibrotic agents. C57BL/6 male mice at 6-8 weeks of age were purchased from vivo biotech India (under the license from Taconic). The procedures involving the care and use of animals in the study was reviewed and approved by the Institutional Animal Care and Use Committee (IAEC/JDC/2018-161R) prior to conduct. During the study, the care and use of animals was in accordance with the principles outlined in the Guide for the Care and Use of Laboratory Animals, 8th Edition, 2010 (National Research Council) and every effort was made to minimize suffering. The animals were acclimatized for 7 days prior to experimental use. Mice were caged with free access to food and fresh water in a temperature-controlled room (22° C.-24° C.) on a 12 h light/dark cycle. Pulmonary fibrosis was induced by invasive method in animals using single intra-tracheal administration of 50 μg bleomycin prepared in 50 μL of saline under isoflurane anaesthesia. […] Animals were monitored and evaluated for their body weight loss. […] Fibronectin was measured as a PD biomarker by RT-qPCR and fold change in mRNA level was calculated after normalizing to GAPDH. […] The Modified Ashcroft Index score was determined for the vehicle-treated control mice and the test compound treated mice.

EMT-6 cells = test: Murine breast cancer efficacy model, EMT-6 allograft; assay type: in vivo, Balb/C female mice
Experimental: PAD4 is highly expressed in malignant tumours of various cell types, Here, the mouse mammary carcinoma of 4T1 and EMT6 cells were used as an experimental model. Mouse 4T1, and EMT-6, a breast cancer cell line was sourced from American Type Culture Collection (ATCC), USA. Cells were grown according to the product information. To establish allografts, the cells were harvested by trypsinization when they reached around 70 to 80% confluence. After harvesting, Balb/C female mice (7-8 weeks) were implanted with 4T1 (1 million cells/site) and EMT-6 (0.5 million cells/site) subcutaneously in the dorsal right flank of mice using a 1 mL BD syringe attached to a 24-gauge needle. When the tumors became palpable tumor measurement was initiated and at an approximate tumor volume of ˜110 and 93 mm3, respectively. Animals were randomized into different treatment groups keeping tumor volume and the number of animals/group similar across the groups and compound 143 treatment was initiated. […]
(§1) Tumor dimensions (length and breadth) were measured on days 1 (animal randomization based on tumor volume) and thrice weekly thereafter until study termination.
Tumor volumes were calculated using the formula (b2*1)*0.52 where l=length, b=breadth (Dusan Djokovic et al., BMC Cancer, 2010, 10:641). […]

4T1 cells = test: Murine breast cancer efficacy model, 4T1 allograft; assay type: in vivo, Balb/C female mice; conditions: for TGI (percent tumor growth inhibition): BID, PO, day 14, 4T1
Experimental: PAD4 is highly expressed in malignant tumours of various cell types, Here, the mouse mammary carcinoma of 4T1 and EMT6 cells were used as an experimental model. Mouse 4T1, and EMT-6, a breast cancer cell line was sourced from American Type Culture Collection (ATCC), USA. Cells were grown according to the product information. To establish allografts, the cells were harvested by trypsinization when they reached around 70 to 80% confluence. After harvesting, Balb/C female mice (7-8 weeks) were implanted with 4T1 (1 million cells/site) and EMT-6 (0.5 million cells/site) subcutaneously in the dorsal right flank of mice using a 1 mL BD syringe attached to a 24-gauge needle. When the tumors became palpable tumor measurement was initiated and at an approximate tumor volume of ˜110 and 93 mm3, respectively. Animals were randomized into different treatment groups keeping tumor volume and the number of animals/group similar across the groups and compound 143 treatment was initiated. The procedures involving the care and use of animals in the study was reviewed and approved by the Institutional Animal Care and Use Committee (IAEC/JDC/2021/246R) prior to conduct. During the study, the care and use of animals was in accordance with the principles outlined in the Guide for the Care and Use of Laboratory Animals, 8th Edition, 2010 (National Research Council) and every effort was made to minimize suffering. The animals were acclimatized for 7 days prior to experimental use. Mice were caged with free access to food and fresh water in a temperature-controlled room (22° C.-24° C.) on a 12 h light/dark cycle.
as §1
Tumor volumes were calculated using the formula (b2*1)*0.52 where l=length, b=breadth (Dusan Djokovic et al., BMC Cancer, 2010, 10:641).
The percent tumor growth inhibition (% TGI) as a function of anti-tumor efficacy were computed with respect to untreated vehicle control by comparing to the tumor volumes of day 1. […]

N[C@@H]1CCCN(C(=O)c2cc3c4c(c2)nc(-c2cc5cccc(Cl)c5n2CC2CC2)n4CCO3)C1 [Compound 143, (R)-(3-aminopiperidin-1-yl)(2-(7-chloro-1-(cyclopropylmethyl)-1H-indol-2-yl)-3,4-dihydro-5-oxa-1,2a-diazaacenaphthylen-7-yl)methanone]
Lung weight ([1]; day 0 to 14, prophylactic): reduction in lung weight comparable to standard of care Nintedanib | Fibronectin mRNA ([1]; lung, RT-qPCR normalized to GAPDH): stronger reduction of fibronectin mRNA as compared to Nintedanib | TGI (percent tumor growth inhibition) (EMT-6 cells; 50 mg/kg, BID, PO, day 13, EMT-6): 42.6% | Body weight changes (EMT-6 cells; EMT-6 bearing mice, BID PO for 13 days): no significant body weight changes | TGI (percent tumor growth inhibition) (4T1 cells; 25 mg/kg): 24.3% | TGI (percent tumor growth inhibition) (4T1 cells; 50 mg/kg): 48.8% | Body weight changes (4T1 cells; 4T1 bearing mice, BID PO for 14 days): no significant body weight changes
